From patent US20210236494A1, “THERAPEUTIC COMBINATION” (Oncologica UK Ltd., priority 2018, published 2021)

Legend:
[1] = test system: HBEpC bronchial epithelial primary cells; experiment: Western blotting of whole cell extracts; type: cell-based, human
Method: (§1) In addition, whole cell extracts (WCE) were prepared by cell lysis in modified RIPA buffer (50 mmol/L Tris-Cl pH 7.4, 300 mmol/L NaCl, 0.1% NP40, 1% Triton X-100, 0.5% sodium deoxycholate, 0.1% SDS, 5 mmol/L EDTA, 1 mmol/L EGTA, 100 mmol/L sodium fluoride and 1 mmol/L sodium orthovanadate) followed by sonication for 10 seconds. These were analysed by Western Blotting, in which fifty micrograms of protein was loaded in each lane, separated by 4-20% SDS-PAGE, and transferred by semidry electroblotting onto Hybond C Extra nitrocellulose membranes (GE Healthcare, Buckinghamshire, UK).
(§2) Primary antibodies used were: caspase 3 (NB500-210, Novus Biologicals); caspase 9 (sc-17784, Santa Cruz Biotechnology); Cdc7 (K0070-3, MBL International); cyclin A (sc-596, Santa Cruz Biotechnology); cyclin E (MS-870-P, NeoMarkers); Mcm2 pS53 (A300-756A, Bethyl Laboratories); PCNA (610665, BD Biosciences); Rb (554136, BD Biosciences); Rb pS807/811 (9308, Cell Signaling Technologies); TBP (A301-229A, Bethyl Laboratories).
(§3) Blocking, antibody incubations (using various antibodies including anti-Cdc7 or anti-Mcm2 pS53 antibodies), and washing steps were performed.
(§4) Cells were harvested and apoptosis was monitored by phase contrast microscopy, flow cytometry and western blot detection of pro-caspase 3 and 9 cleavage.

[2] = test system: IMR90 mesenchymal diploid fibroblasts; experiment: Western blotting of whole cell extracts; type: cell-based, human
Method: as §1, §2, §3, §4

HBEpC cells [3] = experiment: Flow cytometry of DNA content (cell cycle, sub G1); type: cell-based, human
Method: (§5) After 24 hours medium was removed and cells were retransfected with control (20 nmol/L), CDC7 (10 nmol/L) plus control (10 nmol/L), or CDC7 (10 nmol/L) plus p53 (9 nmol/L duplex plus 1 nmol/L SMARTpool) siRNA mixtures. Cells were harvested at the indicated time points after the second transfection. Efficient knockdown was assessed by qRT-PCR and/or Western blot.
(§6) To test this hypothesis, HBEpC bronchial epithelial cells and IMR90 mesenchymal fibroblasts were transfected with CDC7-siRNA or control-siRNA 48 hours prior to treatment with 500 nM paclitaxel or DMSO and then cultured for a further 24 hours. Cells were harvested and apoptosis was monitored by phase contrast microscopy, flow cytometry and western blot detection of pro-caspase 3 and 9 cleavage.

IMR90 cells [4] = experiment: Flow cytometry of DNA content (cell cycle, sub G1); type: cell-based, human
Method: as §5, §6

HBEpC cells [5] = experiment: Apoptosis monitored by phase contrast microscopy; type: cell-based, human; settings: siRNA (CDC7 or control) 48 hours prior to 500 nM paclitaxel for 24 hours
Method: as §6

IMR90 cells [6] = experiment: Apoptosis monitored by phase contrast microscopy; type: cell-based, human; settings: siRNA (CDC7 or control) 48 hours prior to 500 nM paclitaxel for 24 hours
Method: as §6

CDC7 mRNA in HBEpC cells = experiment: qRT-PCR of CDC7 mRNA after CDC7-siRNA transfection; type: cell-based, human; settings: 72 hours post-transfection, 25 nM siRNA
Text: (§7) Cells were then transfected with CDC7-siRNA to inhibit CDC7 expression. Specifically, CDC7 expression was inhibited with custom double-stranded RNA oligos (5′-[…]-3′ (SEQ ID NO 1) and 5′-[…]-3′ (SEQ ID NO 2) Thermo Scientific), using previously described methods (Tudzarove S. et al 2010 supra.). Non-targeting siRNA was used as a negative control (12935-300, Invitrogen). CDC7 or control siRNA duplexes were transfected using Lipofectamine 2000 (11668019, Invitrogen) according to the manufacturer's recommendations at an optimized concentrations of 10 nM for IMR90 and 25 nM for HBEpC.
(§8) At 72 hours post-transfection, CDC7 mRNA levels were measured using qPCR in order to evaluate the efficiency of transfection with CDC7. In particular, Total RNA was isolated from cells with the PureLink Microto-Midi Total RNA Purification System (Invitrogen) according to the manufacturer's instructions. Total RNA (40 ng) was reverse transcribed, and real-time PCR was performed using a SuperScript III Platinum SYBR Green OneStep qRTPCR kit (Invitrogen) following the manufacturer's instructions. Reactions were carried out in an Eppendorf Mastercycler ep Realplex Real-Time PCR System (Eppendorf, Cambridge, UK), and results were analyzed with Realplex v1.5 software (Eppendorf). […]

CDC7 mRNA in IMR90 cells = experiment: qRT-PCR of CDC7 mRNA after CDC7-siRNA transfection; type: cell-based, human; settings: IMR90, 72 hours post-transfection, 10 nM siRNA
Text: as §7, §8

HBEpC cells [7] = experiment: Cell population growth by phase contrast microscopy; type: cell-based, human; settings: 144 hour time course, plateau 48 to 120 hours post-transfection
Method: (§9) Phase contrast microscopy was performed over a period of 144 hours with an inverted Aziover 200m (Carl Zeiss, Welwyn Garden City, Uk) and Axiovision software to assess cell population growth.

IMR90 cells [8] = experiment: as above; type: cell-based, human; settings: IMR90, 144 hour time course; plateau 48 to 120 hours post-transfection
Method: as §9

[9] = test system: SKOV-3, Saos-2, BT-549 and NCI-H322M cells; experiment: Apoptosis by morphology and western blot of pro-caspase 3 and 9 cleavage in cancer cells; type: cell-based; settings: 96 hours post-transfection; cancer cells lacking functional p53
Method: On this basis, RNAi was then used to investigate the effects of Cdc7 loss in epithelial and mesenchymal cancer cell lines deficient in functional p53. In this experiment, SKOV-3 ovarian carcinoma cells (HTB-77, ATCC) and Saos-2 osteosarcoma cells (HTB-85, ATCC) in McCoy's 5A medium (26600, Invitrogen) supplemented with 15% FBS, BT-549 mammary ductal carcinoma cells (HTB-122, ATCC) in RPMI-1640 medium (52400, Invitrogen) supplemented with 10% FBS and 10 μg/ml insulin (10516, Sigma); and NCI-H322M bronchioalveolar carcinoma cells (95111734, ECACC) in RPMI-1640 medium were used.
Cells were transfected with siRNA as described in Example 1 and the effects on mRNA expression, western blotting and cell population growth were assessed also as described in Example 1.

[10] = siRNA (CDC7 or control) 48 hours prior to 500 nM paclitaxel for 24 hours
[11] = IMR90, siRNA (CDC7 or control) 48 hours prior to 500 nM paclitaxel for 24 hours
[12] = IMR90, 72 hours post-transfection

In the case of CC(=O)O[C@H]1C(=O)[C@@]2(C)[C@H]([C@H](OC(=O)c3ccccc3)[C@]3(O)C[C@H](OC(=O)[C@H](O)[C@@H](NC(=O)c4ccccc4)c4ccccc4)C(C)=C1C3(C)C)[C@]1(OC(C)=O)CO[C@@H]1C[C@@H]2O [paclitaxel], the “pro-caspase 3 and 9 levels” value [1, 10] is reported as “marked reduction”, the “pro-caspase 3 and 9 levels” value [2, 11] is reported as “marked reduction” and the “percentage of cells with less than 2C (sub G1) DNA content” value (HBEpC cells [3]; [10]) is reported as 30%. The “percentage of cells with less than 2C (sub G1) DNA content” value (IMR90 cells [4]; [11]) was 35%, the “cell morphology (apoptosis)” value (HBEpC cells [5]) was “morphological signs of apoptosis” and the “cell morphology (apoptosis)” value (IMR90 cells [6]) was “morphological signs of apoptosis”.

For “CDC7-siRNA: custom double-stranded RNA oligos (5′-GCUCAGCAGGAAAGGUGUUUU-3′ SEQ ID NO 1 and 5′-AACACCUUUCCUGCUGAGCUU-3′ SEQ ID NO 2) inhibiting CDC7 expression (RNA, backbone not given here)”, the “CDC7 mRNA levels reduced relative to control siRNA transfected (CO) cells” value (CDC7 mRNA in HBEpC cells) was 89%, the “CDC7 mRNA levels reduced relative to control siRNA transfected (CO) cells” value (CDC7 mRNA in IMR90 cells) was 87% and the CDC7 protein levels ([1]; 72 hours post-transfection) was “undetectable”. For the same compound, the “Mcm2 phosphorylation at Ser-53” value ([1]; 72 hours post-transfection) was “abolished”, the CDC7 protein levels [2, 12] was “undetectable” and the “Mcm2 phosphorylation at Ser-53” value [2, 12] was “abolished”. For the same compound, the “cell proliferation (cell numbers)” value (HBEpC cells [7]) was “cessation of cell proliferation”, the “cell proliferation (cell numbers)” value (IMR90 cells [8]) was “cessation of cell proliferation” and the cell cycle distribution (HBEpC cells [3]; 72 hours post-transfection) was “accumulation consistent with a G1 arrest”. For the same compound, the “cells with less than 2C (sub G1) DNA content” value (HBEpC cells [3]; Cdc7-depleted alone) was “not detected”, the cell cycle distribution (IMR90 cells [4]; [12]) was “accumulation consistent with a G1 arrest” and the “cells with less than 2C (sub G1) DNA content” value (IMR90 cells [4]; IMR90, Cdc7-depleted alone) was “not detected”. For the same compound, the “apoptosis (morphology, cleavage of pro-caspases 3 and 9 in WCE)” value [9] was “Induction of apoptosis”.
